In PubChem BioAssay AID1963849 (Molecular Pharmacology Branch, DTP, NCI, 2024):

Tested on: 299254-011-R-J1-PDC complex spheroid viability
Assay: Anticancer human tumor 299254-011-R-J1-PDC patient-derived melanoma cell line growth inhibition [POLQ]
Conditions: for IC50: curve of first compound; for viability, T/C: stronger effect = lower value
How it was run: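 PDC + HUVEC + MSC complex spheroids; POLQ inhibitors ± partner drugs; top conc. at/near clinical Cmax, else 10 microM (SN-38 1 microM), half-log dilutions; 37 degrees C, 5% CO2.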

[1] = second compound 0.0316 µM, first compound 0.0316 µM
[2] = second compound 0.0316 µM, first compound 0.1 µM
[3] = second compound 0.0316 µM, first compound 0.316 µM
[4] = second compound 0.0316 µM, first compound 1 µM
[5] = second compound 0.1 µM, first compound 0.0316 µM
[6] = second compound 0.1 µM, first compound 0.1 µM
[7] = second compound 0.1 µM, first compound 0.316 µM
[8] = second compound 0.1 µM, first compound 1 µM
[9] = second compound 0.316 µM, first compound 0.0316 µM
[10] = second compound 0.316 µM, first compound 0.1 µM
[11] = second compound 0.316 µM, first compound 0.316 µM
[12] = second compound 0.316 µM, first compound 1 µM
[13] = second compound 1 µM, first compound 0.0316 µM
[14] = second compound 1 µM, first compound 0.1 µM
[15] = second compound 1 µM, first compound 0.316 µM
[16] = second compound 1 µM, first compound 1 µM
[17] = second compound 3.16 µM, first compound 0.0316 µM
[18] = second compound 3.16 µM, first compound 0.1 µM
[19] = second compound 3.16 µM, first compound 0.316 µM
[20] = second compound 3.16 µM, first compound 1 µM
[21] = second compound 10 µM, first compound 0.0316 µM
[22] = second compound 10 µM, first compound 0.1 µM
[23] = second compound 10 µM, first compound 0.316 µM
[24] = second compound 10 µM, first compound 1 µM
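Note: spheroids exposed to drugs for one week before measurement.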
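Throughout, for viability, T/C: percent viability relative to DMSO vehicle control taken as 100%.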

**Q.** What does the source list for CCc1c2c(nc3ccc(O)cc13)-c1cc3c(c(=O)n1C2)COC(=O)[C@]3(O)CC + Cc1cccc(N(C)C(=O)C2C(O)CCN2c2nc(C)cc(C(F)(F)F)c2C#N)c1?
**A.** IC50 (second compound 0.0316 µM): > 1 µM; IC50 (second compound 0.1 µM): > 1 µM; IC50 (second compound 0.316 µM): > 1 µM; IC50 (second compound 1 µM): > 1 µM; IC50 (second compound 3.16 µM): > 1 µM; IC50 (second compound 10 µM): > 1 µM; viability, T/C (second compound 0.0316 µM, first compound 0.00316 µM): 95.9%; viability, T/C (second compound 0.0316 µM, first compound 0.01 µM): 79.2%; viability, T/C [1]: 72.9%; viability, T/C [2]: 67.8%; viability, T/C [3]: 62.5%; viability, T/C [4]: 53.7%; viability, T/C (second compound 0.1 µM, first compound 0.00316 µM): 92.8%; viability, T/C (second compound 0.1 µM, first compound 0.01 µM): 95.7%; viability, T/C [5]: 65.3%; viability, T/C [6]: 67.6%; viability, T/C [7]: 72.8%; viability, T/C [8]: 56.4%; viability, T/C (second compound 0.316 µM, first compound 0.00316 µM): 104%; viability, T/C (second compound 0.316 µM, first compound 0.01 µM): 86.3%; viability, T/C [9]: 75.3%; viability, T/C [10]: 76.2%; viability, T/C [11]: 56.7%; viability, T/C [12]: 53%; viability, T/C (second compound 1 µM, first compound 0.00316 µM): 111%; viability, T/C (second compound 1 µM, first compound 0.01 µM): 88.5%; viability, T/C [13]: 75.1%; viability, T/C [14]: 64.7%; viability, T/C [15]: 68.6%; viability, T/C [16]: 49.6%; viability, T/C (second compound 3.16 µM, first compound 0.00316 µM): 112%; viability, T/C (second compound 3.16 µM, first compound 0.01 µM): 79%; viability, T/C [17]: 72.1%; viability, T/C [18]: 64.8%; viability, T/C [19]: 71.6%; viability, T/C [20]: 60%; viability, T/C (second compound 10 µM, first compound 0.00316 µM): 88.6%; viability, T/C (second compound 10 µM, first compound 0.01 µM): 69.3%; viability, T/C [21]: 57.9%; viability, T/C [22]: 81.5%; viability, T/C [23]: 60.1%; viability, T/C [24]: 49.7%

**Q.** Which IC50 (second compound 0.0316 µM) does the source give for O=C(c1cc(Cc2n[nH]c(=O)c3ccccc23)ccc1F)N1CCN(C(=O)C2CC2)CC1 + Cc1cccc(N(C)C(=O)C2C(O)CCN2c2nc(C)cc(C(F)(F)F)c2C#N)c1 here?
**A.** Its IC50 is > 10 µM.

**Q.** What about the IC50 (second compound 0.1 µM) of the same compound?
**A.** The IC50 was > 10 µM.

**Q.** What about the IC50 (second compound 0.316 µM) of the same compound?
**A.** The IC50 was > 10 µM.

**Q.** And the IC50 (second compound 1 µM)?
**A.** The IC50 was > 10 µM.

**Q.** What about the IC50 (second compound 3.16 µM) of the same compound?
**A.** Its IC50 is > 10 µM.

**Q.** What about the IC50 (second compound 10 µM) of the same compound?
**A.** The IC50 was > 10 µM.

**Q.** What about the viability, T/C [1] of the same compound?
**A.** The viability, T/C was 90.3%.

**Q.** What about the viability, T/C [2] of the same compound?
**A.** Its viability, T/C is 85.9%.

**Q.** What about the viability, T/C [3] of the same compound?
**A.** The viability, T/C was 98.3%.

**Q.** And the viability, T/C [4]?
**A.** Its viability, T/C is 104%.

**Q.** What about the viability, T/C (second compound 0.0316 µM, first compound 3.16 µM) of the same compound?
**A.** Its viability, T/C is 99.6%.

**Q.** And the viability, T/C (second compound 0.0316 µM, first compound 10 µM)?
**A.** The viability, T/C was 101%.

**Q.** And the viability, T/C [5]?
**A.** The viability, T/C was 93.5%.

**Q.** What about the viability, T/C [6] of the same compound?
**A.** The viability, T/C was 108%.

**Q.** What about the viability, T/C [7] of the same compound?
**A.** Its viability, T/C is 95%.

**Q.** What about the viability, T/C [8] of the same compound?
**A.** The viability, T/C was 97.5%.

**Q.** And the viability, T/C (second compound 0.1 µM, first compound 3.16 µM)?
**A.** Its viability, T/C is 110%.

**Q.** And the viability, T/C (second compound 0.1 µM, first compound 10 µM)?
**A.** Its viability, T/C is 77.4%.

**Q.** What about the viability, T/C [9] of the same compound?
**A.** The viability, T/C was 93%.

**Q.** What about the viability, T/C [10] of the same compound?
**A.** Its viability, T/C is 94%.

**Q.** What about the viability, T/C [11] of the same compound?
**A.** The viability, T/C was 95.9%.

**Q.** What about the viability, T/C [12] of the same compound?
**A.** Its viability, T/C is 104%.

**Q.** And the viability, T/C (second compound 0.316 µM, first compound 3.16 µM)?
**A.** The viability, T/C was 106%.

**Q.** What about the viability, T/C (second compound 0.316 µM, first compound 10 µM) of the same compound?
**A.** The viability, T/C was 83.8%.

**Q.** And the viability, T/C [13]?
**A.** The viability, T/C was 125%.

**Q.** And the viability, T/C [14]?
**A.** Its viability, T/C is 101%.

**Q.** And the viability, T/C [15]?
**A.** Its viability, T/C is 108%.

**Q.** What about the viability, T/C [16] of the same compound?
**A.** Its viability, T/C is 117%.

**Q.** And the viability, T/C (second compound 1 µM, first compound 3.16 µM)?
**A.** Its viability, T/C is 102%.

**Q.** And the viability, T/C (second compound 1 µM, first compound 10 µM)?
**A.** The viability, T/C was 80.2%.

**Q.** What about the viability, T/C [17] of the same compound?
**A.** The viability, T/C was 96.4%.

**Q.** And the viability, T/C [18]?
**A.** Its viability, T/C is 111%.

**Q.** What about the viability, T/C [19] of the same compound?
**A.** Its viability, T/C is 99.6%.

**Q.** And the viability, T/C [20]?
**A.** The viability, T/C was 115%.

**Q.** What about the viability, T/C (second compound 3.16 µM, first compound 3.16 µM) of the same compound?
**A.** Its viability, T/C is 92.8%.

**Q.** And the viability, T/C (second compound 3.16 µM, first compound 10 µM)?
**A.** Its viability, T/C is 74.2%.

**Q.** What about the viability, T/C [21] of the same compound?
**A.** Its viability, T/C is 102%.

**Q.** And the viability, T/C [22]?
**A.** The viability, T/C was 94.5%.

**Q.** And the viability, T/C [23]?
**A.** Its viability, T/C is 83.2%.

**Q.** And the viability, T/C [24]?
**A.** Its viability, T/C is 89.2%.

**Q.** What about the viability, T/C (second compound 10 µM, first compound 3.16 µM) of the same compound?
**A.** Its viability, T/C is 92.9%.

**Q.** And the viability, T/C (second compound 10 µM, first compound 10 µM)?
**A.** Its viability, T/C is 69%.
